Reference: US20240294551A1 (AMGEN INC., priority 2022, published 2024)

Tests used:
[1] = system: Phosphorylation of ERK1/2 in AsPC-1 cells; experiment: Phospho-ERK1/2 MSD Assay; type: cell-based, human; conditions: Homo sapiens, ASPC1, 2 h, read-out: 2 h p-ERK (AsPC-1 cells), IC50
In short: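 Read-out: MSD electrochemiluminescent detection of phosphorylated ERK1/2 in whole-cell lysates, fitted to a 4-parameter logistic curve for IC50. Prior to lysis, AsPC-1 cells (25,000 per well) received a 2 h compound dose-response at 37 °C.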

[2] = target: His-tagged KRAS G12D protein (Homo sapiens (Human), UniProt P01116, G12D); experiment: KRAS G12D TR-FRET Assay; type: binding; conditions: read-out: KRAS G12D Binding IC50
In short: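 His-tagged KRAS G12D (diluted to 20 nM in pH 7.4 HEPES buffer with 10 mM MgCl2 and 10 μM GDP) was preincubated with titrated compound for 30 min at room temperature. Biotinylated KRPep-2d peptide (diluted to 20 nM) was then added for 1 h, and displacement was monitored by TR-FRET.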

AsPC-1 cells = experiment: AsPC-1 CTG Assay (CellTiter-Glo cell viability); type: cell-based, human; conditions: Homo sapiens, ASPC1, 72 h, AsPC-1, 72 h; first value of the cell; read-out: G12D/C/V Cell Proliferation CTG (72 h) AsPC-1
In short: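 Human pancreatic AsPC-1 or colon SW620 cells in RPMI 1640 with 10% FBS, seeded overnight, then exposed to serially diluted compound for 72 h at 37 °C. CellTiter-Glo luminescence normalized to DMSO control; IC50 from a 4-parameter logistic model.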

[3] = target: GDP-bound KRAS protein (aa 1-169), containing both G12D and C118A amino acid substitutions (Homo sapiens (Human), UniProt P01116, C118A/G12D); experiment: KRAS G12D Coupled Nucleotide Exchange Assay; type: biochemical; conditions: read-out: KRAS G12D Coupled Exchange IC50
GDP-bound KRAS protein (aa 1-169), containing both G12D and C118A amino acid substitutions, sequence (P01116 other isoform, or with tags, fused parts or gaps G12D/C118A): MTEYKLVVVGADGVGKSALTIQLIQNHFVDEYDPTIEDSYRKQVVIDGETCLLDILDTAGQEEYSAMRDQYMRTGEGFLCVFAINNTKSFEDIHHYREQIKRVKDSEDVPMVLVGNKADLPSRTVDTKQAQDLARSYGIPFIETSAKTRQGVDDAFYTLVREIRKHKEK

His-tagged KRAS G12D protein, sequence (P01116 other isoform, or with tags, fused parts or gaps G12D): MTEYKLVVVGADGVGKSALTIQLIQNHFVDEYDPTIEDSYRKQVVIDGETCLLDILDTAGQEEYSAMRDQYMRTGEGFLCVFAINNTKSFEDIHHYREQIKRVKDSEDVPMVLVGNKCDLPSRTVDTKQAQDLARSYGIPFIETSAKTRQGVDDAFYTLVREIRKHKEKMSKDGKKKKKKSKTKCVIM

SMILES | IC50 [1] [nM] | IC50 [2] [nM] | IC50 (AsPC-1 cells) [nM] | IC50 [3] [nM]
O=C1CCCc2c(F)ccc3cc(O)cc(c23)-c2ncc3c(nc(OC[C@@]45CCCN4C[C@H](F)C5)nc3c2F)N2CCC[C@](CF)(C2)O1 [Example 42] | 38 | 4 | 414 | 2
Cc1cc2[nH]ncc2c2c1CCCCC(=O)N[C@@H]1CCCCN(C1)c1nc(OC[C@@]34CCCN3C[C@H](F)C4)nc3c(F)c-2ncc13 [Example 54, (26R)-32-fluoro-4-(((2R,7aS)-2-fluorotetrahydro-1H-pyrrolo[1,2-a]pyrrol-7a(5H)-yl)methoxy)-18-methyl-1,3,5,9,14,15,25-heptaazahexacyclo[24.4.1.1~6,10~.0~2,7~.0~11,19~.0~12,16~]dotriaconta-2,4,6,8,10(32),11,13,16,18-nonaen-24-one] | 135 | 6 | 1640 | 3
C[C@@]12CCCN(C1)c1nc(OC[C@@]34CCCN3C[C@H](F)C4)nc3c(F)c(ncc13)-c1cccc3ccc(F)c(c13)CCOC(=O)N2 [Example 77, (15R)-22,31-difluoro-8-(((2R,7aS)-2-fluorotetrahydro-1H-pyrrolo[1,2-a]pyrrol-7a(5H)-yl)methoxy)-15-methyl-18-oxa-3,7,9,11,16-pentaazahexacyclo[19.7.1.1~2,6~.1~11,15~.0~5,10~.0~25,29~]hentriaconta-1(29),2(31),3,5,7,9,21,23,25,27-decaen-17-one] | 745 | 14 | 2140 | 7
O=C1C[C@H]2CN(CCO2)c2nc(OC[C@@]34CCCN3C[C@H](F)C4)nc3c(F)c(ncc23)-c2c(c(Cl)cc3[nH]ncc23)CCCO1 [Example 79, (17S)-9-chloro-30-fluoro-24-(((2R,7aS)-2-fluorotetrahydro-1H-pyrrolo[1,2-a]pyrrol-7a(5H)-yl)methoxy)-14,18-dioxa-5,6,21,23,25,29-hexaazahexacyclo[24.3.1.1~17,21~.0~2,10~.0~3,7~.0~22,27~]hentriaconta-1(30),2,4,7,9,22,24,26,28-nonaen-15-one] | 4 | 4 | 60 | 3
Cc1cc2[nH]ncc2c2c1CCCOC(=O)O[C@H]1CN(CC[C@H]1C)c1nc(OC[C@@]34CCCN3C[C@H](F)C4)nc3c(F)c-2ncc13 [Example 94, (17R,18R)-30-fluoro-24-(((2R,7aS)-2-fluorotetrahydro-1H-pyrrolo[1,2-a]pyrrol-7a(5H)-yl)methoxy)-9,18-dimethyl-14,16-dioxa-5,6,21,23,25,29-hexaazahexacyclo[24.3.1.1~17,21~.0~2,10~.0~3,7~.0~22,27~]hentriaconta-1(30),2,4,7,9,22,24,26,28-nonaen-15-one] | 222 | 10 | 1000 | 6
Cc1cc2[nH]ncc2c2c1CCCC(=O)OCCC1CCCN(C1)c1nc(OC[C@@]34CCCN3C[C@H](F)C4)nc3c(F)c-2ncc13 (some centres unmarked) [Example 105] | 245 | 14 | 1940 | 8
Cc1cc2[nH]ncc2c2c1CCCC(=O)OC[C@@H]1CCCN(C1)c1nc(OC[C@@]34CCCN3C[C@H](F)C4)nc3c(F)c-2ncc13 [Example 106] | 29 | 4 | 270 | 1
O=C1OCCC2CCc3cc4[nH]ncc4c(c32)-c2ncc3c(nc(OC[C@@]45CCCN4C[C@H](F)C5)nc3c2F)N2CCC[C@H](C2)O1 (some centres unmarked) [Example 125] | 66 | 9 | 410 | 5
